This note sets out measurements from patent publication US9260425B2 (Genetech, Inc., priority 2011, dated 2016).

In this test the target is Pim-1 (Homo sapiens (Human), UniProt P11309). Description: Pim kinase binding activity assay (Example 901), PIM-1 enzyme, Caliper microfluidic peptide phosphorylation. The test is classed as biochemical. To be noted: 20 pM PIM-1, 10 μM ATP, 1 μM FAM-peptide, 90 minutes at room temperature. Put shortly:
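The readout was microfluidic mobility-shift separation of a FAM-tagged Pim-specific peptide, excited at 488 nm and read at 530 nm, with Ki calculated from percent conversion. Reactions held 20 pM PIM-1, 1 μM peptide and 10 μM ATP in pH 7.2 HEPES/MgCl2/DTT buffer, ran 90 min at room temperature and were stopped with EDTA.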

Pim-1, sequence (P11309 whole entry): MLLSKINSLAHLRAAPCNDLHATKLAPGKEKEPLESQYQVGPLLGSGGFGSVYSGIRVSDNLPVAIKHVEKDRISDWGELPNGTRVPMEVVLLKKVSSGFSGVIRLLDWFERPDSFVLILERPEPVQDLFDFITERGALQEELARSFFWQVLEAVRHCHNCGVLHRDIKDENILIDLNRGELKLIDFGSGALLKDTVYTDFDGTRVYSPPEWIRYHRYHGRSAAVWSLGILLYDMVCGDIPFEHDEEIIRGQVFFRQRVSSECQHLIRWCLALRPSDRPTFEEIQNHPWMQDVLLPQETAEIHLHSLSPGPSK

For the compound `N[C@H]1CCCN(c2nc(-c3n[nH]c4cnc(-c5cccnc5)cc34)ccc2C2CC2)C1` [Example 485, (S)-1-(3-cyclopropyl-6-(5-(pyridin-3-yl)-1H-pyrazolo[3,4-c]pyridin-3-yl)pyridin-2-yl)piperidin-3-amine], the affinity, expressed as Ki, was 0.022 nM. The value for `Cn1cc(-c2cc3c(-c4ccc(C5CC5)c(N5CCC[C@H](N)C5)n4)n[nH]c3cn2)cn1` [Example 486, (S)-1-(3-cyclopropyl-6-(5-(1-methyl-1H-pyrazol-4-yl)-1H-pyrazolo[3,4-c]pyridin-3-yl)pyridin-2-yl)piperidin-3-amine] was 0.009 nM; that for `c1cc(-c2n[nH]c3cnc(-c4cnn(C5CC5)c4)cc23)nc(N2CCNCC2)c1` [Example 487, 5-(1-cyclopropyl-1H-pyrazol-4-yl)-3-(6-(piperazin-1-yl)pyridin-2-yl)-1H-pyrazolo[3,4-c]pyridine] was 0.106 nM; that for `FC(F)(F)Cn1cc(-c2cc3c(-c4cccc(N5CCNCC5)n4)n[nH]c3cn2)cn1` [Example 488, 3-(6-(piperazin-1-yl)pyridin-2-yl)-5-(1-(2,2,2-trifluoroethyl)-1H-pyrazol-4-yl)-1H-pyrazolo[3,4-c]pyridine] was 0.022 nM. The value for `FCCn1cc(-c2cc3c(-c4cccc(N5CCCNCC5)n4)n[nH]c3cn2)cn1` [Example 489, 3-(6-(1,4-diazepan-1-yl)pyridin-2-yl)-5-(1-(2-fluoroethyl)-1H-pyrazol-4-yl)-1H-pyrazolo[3,4-c]pyridine] was 0.014 nM; that for `CCn1cc(-c2cc3c(-c4cc(C#N)cc(N5CCCNCC5)n4)n[nH]c3cn2)cn1` [Example 490, 2-(1,4-diazepan-1-yl)-6-(5-(1-ethyl-1H-pyrazol-4-yl)-1H-pyrazolo[3,4-c]pyridin-3-yl)isonicotinonitrile] was 0.107 nM.

Compound `CCn1cc(-c2cc3c(-c4cccc(N5CCNC(C(F)(F)F)CC5)n4)n[nH]c3cn2)cn1` (stereo not shown) [Example 491, 5-(1-ethyl-1H-pyrazol-4-yl)-3-(6-(5-(trifluoromethyl)-1,4-diazepan-1-yl)pyridin-2-yl)-1H-pyrazolo[3,4-c]pyridine] registered a Ki of 0.181 nM. Consider `CCn1cc(-c2cc3c(-c4cc(C)ccn4)n[nH]c3cn2)cn1` [Example 492, 5-(1-ethyl-1H-pyrazol-4-yl)-3-(4-methylpyridin-2-yl)-1H-pyrazolo[3,4-c]pyridine], for which the affinity, expressed as Ki, was 23.2 nM.

In turn, `CCc1ccnc(-c2n[nH]c3cnc(-c4cnn(CC)c4)cc23)c1` [Example 493, 5-(1-ethyl-1H-pyrazol-4-yl)-3-(4-ethylpyridin-2-yl)-1H-pyrazolo[3,4-c]pyridine] came in with a Ki of 43.6 nM. In the case of `CCn1cc(-c2cc3c(-c4cccc(N5CCCCC(O)C5)n4)n[nH]c3cn2)cn1` (stereo not shown) [Example 494, 1-(6-(5-(1-ethyl-1H-pyrazol-4-yl)-1H-pyrazolo[3,4-c]pyridin-3-yl)pyridin-2-yl)azepan-3-ol], the affinity corresponds to a Ki of 0.122 nM. Then `Cn1cc(-c2cc3c(-c4cccc(N5C[C@@H](N)C[C@@H](F)C5)n4)n[nH]c3cn2)cn1` [Example 495, (3S,5R)-5-fluoro-1-(6-(5-(1-methyl-1H-pyrazol-4-yl)-1H-pyrazolo[3,4-c]pyridin-3-yl)pyridin-2-yl)piperidin-3-amine], with 0.122 nM; and `OCCn1cc(-c2cc3c(-c4cccc(N5CCNCC5)n4)n[nH]c3cn2)cn1` [Example 496, 2-(4-(3-(6-(piperazin-1-yl)pyridin-2-yl)-1H-pyrazolo[3,4-c]pyridin-5-yl)-1H-pyrazol-1-yl)ethanol], with 0.13 nM.

The compound `CCn1cc(-c2cc3c(-c4cc(CO)ccn4)n[nH]c3cn2)cn1` [Example 498, (2-(5-(1-ethyl-1H-pyrazol-4-yl)-1H-pyrazolo[3,4-c]pyridin-3-yl)pyridin-4-yl)methanol] gave a Ki of 17.2 nM.

`C=C(C)c1ccnc(-c2n[nH]c3cnc(-c4cnn(CC)c4)cc23)c1` [Example 500, 5-(1-ethyl-1H-pyrazol-4-yl)-3-(4-(prop-1-en-2-yl)pyridin-2-yl)-1H-pyrazolo[3,4-c]pyridine]: the affinity corresponds to a Ki of 54.1 nM. In turn, `CCn1cc(-c2cc3c(-c4cccc(N5CCCC[C@H](O)C5)n4)n[nH]c3cn2)cn1` [Example 501, (S)-1-(6-(5-(1-ethyl-1H-pyrazol-4-yl)-1H-pyrazolo[3,4-c]pyridin-3-yl)pyridin-2-yl)azepan-3-ol] registered a Ki of 0.103 nM. As to `CCn1cc(-c2cc3c(-c4cccc(N5CCCC[C@@H](O)C5)n4)n[nH]c3cn2)cn1` [Example 502, (R)-1-(6-(5-(1-ethyl-1H-pyrazol-4-yl)-1H-pyrazolo[3,4-c]pyridin-3-yl)pyridin-2-yl)azepan-3-ol], the Ki was 0.139 nM. Then `C[C@H]1CN(c2cccc(-c3n[nH]c4cnc(-c5cnn(CCF)c5)cc34)n2)CCN1` [Example 503, (S)-5-(1-(2-fluoroethyl)-1H-pyrazol-4-yl)-3-(6-(3-methylpiperazin-1-yl)pyridin-2-yl)-1H-pyrazolo[3,4-c]pyridine], with 0.0294 nM; and `CCn1cc(-c2cc3c(-c4cccc(N5CCNCC(F)C5)n4)n[nH]c3cn2)cn1` (stereo not shown) [Example 504, 5-(1-ethyl-1H-pyrazol-4-yl)-3-(6-(6-fluoro-1,4-diazepan-1-yl)pyridin-2-yl)-1H-pyrazolo[3,4-c]pyridine], with 0.076 nM. Then `CCn1cc(-c2cc3c(-c4ccc(C5CC5)c(N5CCC[C@H](N)C5)n4)n[nH]c3cn2)cn1` [Example 506, (S)-1-(3-cyclopropyl-6-(5-(1-ethyl-1H-pyrazol-4-yl)-1H-pyrazolo[3,4-c]pyridin-3-yl)pyridin-2-yl)piperidin-3-amine], with 0.021 nM; and `CCn1cc(-c2cc3c(-c4cc(C(C)C)ccn4)n[nH]c3cn2)cn1` [Example 507, 5-(1-ethyl-1H-pyrazol-4-yl)-3-(4-isopropylpyridin-2-yl)-1H-pyrazolo[3,4-c]pyridine], with 29.8 nM. Then `CCn1cc(-c2cc3c(-c4ccccn4)n[nH]c3cn2)cn1` [Example 508, 5-(1-ethyl-1H-pyrazol-4-yl)-3-(pyridin-2-yl)-1H-pyrazolo[3,4-c]pyridine], with 10.6 nM. Regarding `Cc1ccc(-c2n[nH]c3cnc(-c4cnn(C)c4)cc23)nc1N1C[C@@H](N)C[C@@H](F)C1` [Example 509, (3S,5R)-5-fluoro-1-(3-methyl-6-(5-(1-methyl-1H-pyrazol-4-yl)-1H-pyrazolo[3,4-c]pyridin-3-yl)pyridin-2-yl)piperidin-3-amine], the Ki came out at 0.056 nM. On to `CCn1cc(-c2cc3c(-c4ccc(C)c(N5C[C@@H](N)C[C@@H](F)C5)n4)n[nH]c3cn2)cn1` [Example 510, (3S,5R)-1-(6-(5-(1-ethyl-1H-pyrazol-4-yl)-1H-pyrazolo[3,4-c]pyridin-3-yl)-3-methylpyridin-2-yl)-5-fluoropiperidin-3-amine], for which the Ki was 0.03 nM. The compound `CCn1cc(-c2cc3c(-c4cccc(N5CCNCC(CO)C5)n4)n[nH]c3cn2)cn1` (stereo not shown) [Example 511, (1-(6-(5-(1-ethyl-1H-pyrazol-4-yl)-1H-pyrazolo[3,4-c]pyridin-3-yl)pyridin-2-yl)-1,4-diazepan-6-yl)methanol] gave a Ki of 0.016 nM.

As to `CCn1cc(-c2cc3c(-c4cccc(N5CCNCC(CO)C5)n4)n[nH]c3cn2)cn1` (stereo not shown) [Example 512, (1-(6-(5-(1-ethyl-1H-pyrazol-4-yl)-1H-pyrazolo[3,4-c]pyridin-3-yl)pyridin-2-yl)-1,4-diazepan-6-yl)methanol], the Ki was 0.04 nM.

For the compound `CCn1cc(-c2cc3c(-c4cccc(NC5CCCCNC5)n4)n[nH]c3cn2)cn1` (stereo not shown) [Example 513, N-(6-(5-(1-ethyl-1H-pyrazol-4-yl)-1H-pyrazolo[3,4-c]pyridin-3-yl)pyridin-2-yl)azepan-3-amine], affinity was put at a Ki of 0.055 nM. For `NC1CCCCN(c2cccc(-c3n[nH]c4cnc(-c5cnn(CCF)c5)cc34)n2)C1` (stereo not shown) [Example 514, 1-(6-(5-(1-(2-fluoroethyl)-1H-pyrazol-4-yl)-1H-pyrazolo[3,4-c]pyridin-3-yl)pyridin-2-yl)azepan-3-amine], the Ki came to 0.077 nM. Then `CCn1cncc(-c2cc3c(-c4cccc(N5CCNCC5)n4)n[nH]c3cn2)c1=O` [Example 515, 3-ethyl-5-(3-(6-(piperazin-1-yl)pyridin-2-yl)-1H-pyrazolo[3,4-c]pyridin-5-yl)pyrimidin-4(3H)-one], with 0.015 nM; and `CC1CN(c2cccc(-c3n[nH]c4cnc(-c5cnn(CCF)c5)cc34)n2)CCN1` (stereo not shown) [Example 516, 5-(1-(2-fluoroethyl)-1H-pyrazol-4-yl)-3-(6-(3-methylpiperazin-1-yl)pyridin-2-yl)-1H-pyrazolo[3,4-c]pyridine], with 0.024 nM. `Cn1cc(-c2cc3c(-c4cccc(N5C[C@H](N)C[C@@H](F)C5)n4)n[nH]c3cn2)cn1` [Example 517, (3R,5R)-5-fluoro-1-(6-(5-(1-methyl-1H-pyrazol-4-yl)-1H-pyrazolo[3,4-c]pyridin-3-yl)pyridin-2-yl)piperidin-3-amine] had a Ki of 1.17 nM. Then `CCn1cc(-c2cc3c(-c4cccc(N5CCCCC(N)C5)n4)n[nH]c3cn2)cn1` (stereo not shown) [Example 518, 1-(6-(5-(1-ethyl-1H-pyrazol-4-yl)-1H-pyrazolo[3,4-c]pyridin-3-yl)pyridin-2-yl)azepan-3-amine], with 0.082 nM; and `N[C@H]1CCCCN(c2cccc(-c3n[nH]c4cnc(-c5cnn(CCF)c5)cc34)n2)C1` [Example 519, (S)-1-(6-(5-(1-(2-fluoroethyl)-1H-pyrazol-4-yl)-1H-pyrazolo[3,4-c]pyridin-3-yl)pyridin-2-yl)azepan-3-amine], with 0.025 nM. The value for `N[C@@H]1CCCCN(c2cccc(-c3n[nH]c4cnc(-c5cnn(CCF)c5)cc34)n2)C1` [Example 520, (R)-1-(6-(5-(1-(2-fluoroethyl)-1H-pyrazol-4-yl)-1H-pyrazolo[3,4-c]pyridin-3-yl)pyridin-2-yl)azepan-3-amine] was 0.098 nM; that for `C[C@@H]1CN(c2cccc(-c3n[nH]c4cnc(-c5cnn(CCF)c5)cc34)n2)CCN1` [Example 521, (R)-5-(1-(2-fluoroethyl)-1H-pyrazol-4-yl)-3-(6-(3-methylpiperazin-1-yl)pyridin-2-yl)-1H-pyrazolo[3,4-c]pyridine] was 0.026 nM.

The term Ki denotes a dissociation constant, usually derived from enzyme kinetics or from competition with a known ligand. Read a low Ki as a stronger hold on the target.
